Each structure is given as a SMILES string. Some results are limits rather than exact numbers.

The subject of assay [1] is MCF-7 breast cancer cells. Put plainly: cells. The following applies: Homo sapiens, MCF7, 72 h, read-out: IC50 against MCF-7 breast cancer cells. The assay is classed as cell-based.
Assay [2] relates to patient-derived PDAC organoids. The assay is classed as cell-based, human.
The next assay concerns MIA PaCa-2/GemLuc cells. The assay is classed as cell-based.
Assay [3] has as its system SUIT2, MIA PaCa-2 and MDA-MB-231 cell lines. Put plainly: cells. The assay is classed as cell-based. Particulars: read-out: IC50 values (range).
The next assay relates to HCT-15. Particulars: read-out: IC50 HCT-15; cited from earlier work.
Another assay relates to NCI-H460. Particulars: read-out: IC50 NCI-H460; cited from earlier work.

Take `C[C@]12CC[C@@H]3c4ccc(O)cc4CC[C@H]3[C@@H]1CCC2=O` [estrone (5), Estrone]: the IC50 (commonly the concentration that inhibits the measured activity by half) in assay [1] is greater than 200000 nM.
Take `Cc1cc2cc(O)ccc2[nH]1` [Compound L01, 2-Methyl-1H-indol-5-ol]: in assay [2], the “antiproliferative activity against patient-derived PDAC organoids” value is given as “no antiproliferative activity”. Moreover, in the assay on MIA PaCa-2/GemLuc cells, the “cell cycle arrest (red S/G2/M bioluminescence)” value was “failed to elicit the same effect”.
With `COc1ccc(/C=C\c2cc(OC)c(OC)c(OC)c2)cc1O` [CA-4, combretastatin A4], the half-inhibitory concentration (IC50) is 2.4 to 8.7 nM in assay [3], 1.7 nM in the assay on HCT-15 and 3 nM in the assay with NCI-H460.

(Values after article PMC10935723 (Chemical Science, 2024).)
